From US6545009B1, “Retinoid-related receptor function regulating agent” (Takeda Chemical Industries, Ltd., priority 1998, dated 2003)

CCOC(=O)c1ccc(-c2coc(-c3cccc(C(F)(F)F)c3)n2)cc1 [Example 20, ethyl 4-[2-(3-trifluoromethylphenyl)-4-oxazolyl]benzoate]
melting point: 132 to 133 °C

COC(=O)c1cccc(-c2nc(-c3cccc(C(F)(F)F)c3)cs2)c1 [Example 45, methyl 3-[4-(3-trifluoromethylphenyl)-2-thiazolyl]benzoate]
melting point: 105 to 106 °C

COC(=O)c1ccc(-c2nc(-c3cc(Cl)sc3Cl)cs2)cc1 [Example 80, methyl 4-[4-(2,5-dichloro-3-thienyl)-2-thiazolyl]benzoate]
melting point: 149 to 150 °C

O=C(O)c1ccc(-c2nc(-c3c(F)c(F)c(F)c(F)c3F)cs2)cc1 [Example 65, 4-[4-(2,3,4,5,6-pentafluorophenyl)-2-thiazolyl]benzoic acid]
melting point: 273 to 274 °C

COC(=O)c1cccc(-c2nc(-c3cccc(OC(F)(F)F)c3)cs2)c1 [Example 50, methyl 3-[4-(3-trifluoromethoxyphenyl)-2-thiazolyl]benzoate]
melting point: 84 to 85 °C

COC(=O)c1ccc(-c2nc(-c3cccc(OC(F)(F)F)c3)cs2)cc1 [Example 40, methyl 4-[4-(3-trifluoromethoxyphenyl)-2-thiazolyl]benzoate]
melting point: 132 to 134 °C

O=C(O)c1cccc(-c2nc(-c3ccc(F)c(F)c3)cs2)c1 [Example 71, 3-[4-(3,4-difluorophenyl)-2-thiazolyl]benzoic acid]
melting point: 255 to 256 °C

O=C(O)c1ccc(-c2nc(-c3ccc(Cl)s3)co2)cc1 [Example 14, 4-[4-(5-chloro-2-thienyl)-2-oxazolyl]benzoic acid]
melting point: ≥ 300 °C

O=C(O)c1ccc(-c2coc(-c3ccc(C(F)(F)F)cc3)n2)cc1 [Example 25, 4-[2-(4-trifluoromethylphenyl)-4-oxazolyl]benzoic acid]
melting point: 294 to 295 °C

COC(=O)c1cccc(-c2nc(-c3ccc(C(F)(F)F)cc3)cs2)c1 [Example 44, methyl 3-[4-(4-trifluoromethylphenyl)-2-thiazolyl]benzoate]
melting point: 142 to 143 °C

CCOC(=O)c1cccc(-c2nc(-c3ccc(C)c(C)c3)cs2)c1 [Example 74, ethyl 3-[4-(3,4-dimethylphenyl)-2-thiazolyl]benzoate]
melting point: 114 to 115 °C

O=C(O)c1cccc(-c2nc(-c3ccc(Cl)cc3)cs2)c1 [compound 12, 3-[4-(4-chlorophenyl)-2-thiazolyl]benzoic acid]
melting point: 265 to 266 °C

O=C(O)c1ccc(-c2nc(-c3cccc(OC(F)(F)F)c3)cs2)cc1 [Example 63, 4-[4-(3-trifluoromethoxylphenyl)-2-thiazolyl]benzoic acid]
melting point: 233 to 234 °C

O=C(O)c1cccc(-c2nc(-c3ccc(C(F)(F)F)cc3)co2)c1 [Example 27, 3-[4-(4-trifluoromethylphenyl)-2-oxazolyl]benzoic acid]
melting point: 206 to 208 °C

O=C(O)c1ccc(-c2nc(-c3ccccn3)cs2)cc1 [Example 61, 4-[4-(2-pyridyl)-2-thiazolyl]benzoic acid]
melting point: > 300 °C

COC(=O)c1ccc(-c2nc(-c3cc(C)sc3C)cs2)cc1 [Example 79, methyl 4-[4-(2,5-dimethyl-3-thienyl)-2-thiazolyl]benzoate]
melting point: 109 to 110 °C

CCOC(=O)c1ccc(-c2ncc(-c3ccc(Cl)cc3)o2)cc1 [Example 108, ethyl 4-[5-(4-chlorophenyl)-2-oxazolyl]benzoate]
melting point: 195 to 197 °C

CCOC(=O)c1ccc(-c2csc(-c3ccc(C(F)(F)F)cc3)n2)cc1 [Example 104, ethyl 4-[2-(4-trifluoromethylphenyl)-4-thiazolyl)benzoate]
melting point: 163 to 164 °C

O=C(O)c1ccc(-c2nc(-c3cc(C(F)(F)F)cc(C(F)(F)F)c3)co2)cc1 [Example 23, 4-[4-[3,5-bis(trifluoromethyl)phenyl)-2-oxazolyl]benzoic acid]
melting point: 277 to 279 °C

COC(=O)c1ccc(-c2nc(-c3ccccc3)co2)cc1 [Example 4, methyl 4-(4-phenyl-2-oxazolyl)benzoate]
melting point: 175 to 176 °C

O=C(O)c1ccc(-c2coc(-c3ccccc3)n2)cc1 [Example 12, 4-(2-phenyl-4-oxazolyl]benzoic acid]
melting point: 271 to 273 °C

Br.CCOC(=O)c1ccc(-c2csc(-c3ccncc3)n2)cc1 [Example 105, ethyl 4-[2-(4-pyridyl)-4-thiazolyl)benzoate hydrobromide]
melting point: 247 to 248 °C

O=C(O)c1ccc(-c2csc(-c3ccncc3)n2)cc1 [Example 59, 4-[2-(4-pyridyl)-4-thiazolyl]benzoic acid]
melting point: > 300 °C

CCCCc1ccc(-c2csc(-c3ccc(C(=O)O)cc3)n2)cc1 [Example 99, 4-[4-(4-butylphenyl)-2-thiazolyl]benzoic acid]
melting point: 263 to 265 °C

O=C(O)c1cccc(-c2nc(-c3ccc(F)cc3F)cs2)c1 [Example 69, 3-[4-(2,4-difluorophenyl)-2-thiazolyl]benzoic acid]
melting point: 255 to 256 °C

COC(=O)c1ccc(-c2nc(-c3ccc(Cl)s3)co2)cc1 [Example 7, methyl 4-[4-(5-chloro-2-thienyl)-2-oxazolyl]benzoate]
melting point: 189 to 190 °C

CCOC(=O)c1cccc(-c2nc(-c3cc(C)oc3C)cs2)c1 [Example 49, ethyl 3-[4-(2,5-dimethyl-3-furyl)-2-thiazolyl]benzoate]
melting point: 100 to 101 °C

CCOC(=O)c1cccc(-c2nc(-c3cc(Cl)sc3Cl)cs2)c1 [Example 81, ethyl 3-[4-(2,5-dichloro-3-thienyl)-2-thiazolyl]benzoate]
melting point: 125 to 126 °C

COC(=O)c1ccc(-c2nc(-c3cc(C)oc3C)cs2)cc1 [Example 77, methyl 4-[4-(2,5-dimethyl-3-furyl)-2-thiazolyl]benzoate]
melting point: 103 to 105 °C

COC(=O)c1ccc(-c2nc(-c3ccc(OC)cc3)co2)cc1 [Example 3, methyl 4-[4-(4-methoxyphenyl)-2-oxazolyl]benzoate]
melting point: 200 to 202 °C

Cc1cc(-c2csc(-c3ccc(C(=O)O)cc3)n2)c(C)o1 [Example 91, 4-[4-(2,5-dimethyl-3-furyl)-2-thiazolyl]benzoic acid]
melting point: 264 to 265 °C

Cc1ccc(-c2csc(-c3cccc(C(=O)O)c3)n2)cc1C [Example 88, 3-[4-(3,4-dimethylphenyl)-2-thiazolyl]benzoic acid]
melting point: 235 to 236 °C

O=C(O)c1ccc(-c2csc(-c3cccnc3)n2)cc1 [Example 54, 4-[2-(3-pyridyl)-4-thiazolyl]benzoic acid]
melting point: > 300 °C

COC(=O)c1cccc(-c2nc(-c3ccc(OC)cc3)cs2)c1 [Example 47, methyl 3-[4-(4-methoxyphenyl)-2-thiazolyl]benzoate]
melting point: 108 to 109 °C

COC(=O)c1ccc(-c2nc(-c3ccc(Cl)cc3)co2)cc1 [Example 1, methyl 4-[4-(4-chlorophenyl)-2-oxazolyl]benzoate]
melting point: 183 to 184 °C

CCOC(=O)c1cccc(-c2nc(-c3ccc(C)c(C)c3)cs2)c1 [Example 76, ethyl 3-[4-(3,4-dimethylphenyl)-2-thiazolyl]-benzoate]
melting point: 147 to 148 °C

O=C(O)c1ccc(-c2cnc(-c3ccc(Cl)cc3)o2)cc1 [compound 13, 4-[2-(4-chlorophenyl)-5-oxazolyl]benzoic acid]
melting point: 268 to 270 °C
